Experimental data: patent US20210395239A1 (Hoffmann-La Roche Inc., priority 2018, published 2021)

How the values were obtained:
[1] = target: T1, CYP2C9 (Homo sapiens, UniProt P11712); assay: CYP inhibition assay in human liver microsome, CYP2C9; format: in vitro ADME; conditions: human, human liver microsomes, probe diclofenac 5 μM, substrate diclofenac 5 μM, first value of 2C9/2D6/3A4
T1 construct: tissue BD-Gentest 452117; host or cells: human liver microsomes
Experimental: (§1) This is a high throughput screening assay used for assessment of reversible inhibition of CYP2C9, CYP2D6, and CYP3A4 activity of test compounds in human liver microsome (HLM) in early discovery stage.
(§2) 10 mM DMSO stock solutions of test compounds were diluted in DMSO to generate 2 mM intermediate stock solution. 250 nL, of intermediate stock solution were transferred in duplicate into 3 separate 384 well microtitre plates (assay-ready plates). A mixture of HLM and each substrate was made up. 45 μL of HLM substrate mix was then transferred to each well of an assay ready plate and mixed. The negative (solvent) and positive controls (standard inhibitor for each CYP) were included in each assay ready plate. The assay ready plate was warmed to 37° C. in an incubator over 10 minutes. 5 μL pre-warmed NADPH regenerating system was added to each incubation well to start the reaction. Final incubation volume was 50 μL. The assay plate then was placed back in the 37° C. incubator. After incubation (10 minutes for CYP2D6) for 5 minutes, incubates were quenched by addition of 50 μL 100% acetonitrile containing internal standards (400 ng/mL 13C6-4′-OH-Diclofenac, 20 ng/mL D3-Dextrorphan and 20 ng/mL D4-1′OH-Midazolam). The supernatants were collected for RapidFire/MS/MS analysis.
(§3) RapidFire online solid phase extraction/sample injection system (Agilent) coupled with API4000 triple quadrupole mass spectrometer (AB Sciex) were used for sample analysis. The mobile phase composed of acetonitrile and water supplemented with 0.1% formic acid. A C4 solid phase extraction cartridge is used for sample separation. MS detection is achieved in positive ion MRM mode.
(§4) Peak areas for substrate, metabolite and internal standard are determined using the RapidFire integrator software (version 3.6.12009.12296). Peak area ratios (PAR) of metabolite and internal standard (stable-labelled metabolite) are then calculated. The measurement window for each experiment is then defined:
(§5) PAR (0% activity)=average PAR for all incubations containing concentrated inhibitor; Par (100% activity)=average PAR for all incubations containing no inhibitor (DMSO controls); % Activity (test inhibitor)=[PAR (test inhibitor)−PAR (0% activity)]/[PAR (100% activity)−PAR (0% activity)]; % Inhibition (test inhibitor)=100-% Activity (test inhibitor).

[2] = target: T2, human TLR7 (Homo sapiens, UniProt Q9NYK1); assay: HEK293-Blue-hTLR-7 cells assay (SEAP reporter, R848 stimulation); format: cell-based; conditions: HEK293-Blue-hTLR7 cells, R848, 20 hrs; read-out: HEK/hTLR7 IC50
T2 construct: host or cells: HEK293 (HEK-Blue hTLR7)
T2 sequence (Q9NYK1 27-1049): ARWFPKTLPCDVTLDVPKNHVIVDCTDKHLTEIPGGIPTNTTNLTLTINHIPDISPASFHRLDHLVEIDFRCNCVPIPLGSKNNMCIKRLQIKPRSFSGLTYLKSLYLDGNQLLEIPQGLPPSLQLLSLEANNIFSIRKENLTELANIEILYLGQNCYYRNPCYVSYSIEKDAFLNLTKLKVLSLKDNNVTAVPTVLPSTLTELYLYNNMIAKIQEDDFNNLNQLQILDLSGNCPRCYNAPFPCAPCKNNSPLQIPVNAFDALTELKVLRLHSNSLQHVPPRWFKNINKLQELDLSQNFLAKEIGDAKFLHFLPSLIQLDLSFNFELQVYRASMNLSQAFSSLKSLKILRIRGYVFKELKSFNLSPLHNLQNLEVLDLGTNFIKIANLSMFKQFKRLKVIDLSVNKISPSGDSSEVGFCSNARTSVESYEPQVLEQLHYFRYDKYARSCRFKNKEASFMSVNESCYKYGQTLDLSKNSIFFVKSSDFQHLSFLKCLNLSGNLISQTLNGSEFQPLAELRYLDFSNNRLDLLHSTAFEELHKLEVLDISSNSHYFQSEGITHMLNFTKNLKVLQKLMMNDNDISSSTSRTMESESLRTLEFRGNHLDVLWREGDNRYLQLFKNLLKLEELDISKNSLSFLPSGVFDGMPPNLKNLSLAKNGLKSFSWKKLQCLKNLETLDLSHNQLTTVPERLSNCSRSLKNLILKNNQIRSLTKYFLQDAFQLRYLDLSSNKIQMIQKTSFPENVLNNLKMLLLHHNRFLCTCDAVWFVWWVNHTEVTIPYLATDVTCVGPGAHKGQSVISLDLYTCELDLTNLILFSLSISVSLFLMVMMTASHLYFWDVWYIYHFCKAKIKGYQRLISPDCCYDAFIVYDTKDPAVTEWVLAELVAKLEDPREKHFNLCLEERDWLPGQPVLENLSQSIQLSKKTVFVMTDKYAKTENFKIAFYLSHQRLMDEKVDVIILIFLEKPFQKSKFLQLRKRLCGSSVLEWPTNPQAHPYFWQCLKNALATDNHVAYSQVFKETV
Method in brief: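 HEK293-Blue-hTLR7 cells (NF-κB/AP-1-driven SEAP reporter) were stimulated with R848 alongside serially diluted compound at 1% final DMSO for 20 h at 37 °C. Supernatant SEAP was then developed with QUANTI-Blue for 2 h at 37 °C and absorbance read at 620–655 nm; antagonism is measured as reduced reporter signal.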

[3] = target: T3, CYP3A4 (Homo sapiens, UniProt P08684); assay: CYP inhibition assay in human liver microsome, CYP3A4; format: in vitro ADME; conditions: human, human liver microsomes, probe midazolam 5 μM, substrate midazolam 5 μM, third value of 2C9/2D6/3A4
T3 construct: tissue BD-Gentest 452117; host or cells: human liver microsomes
Experimental: as §1, §2, §3, §4, §5

T1 sequence (P11712 whole entry): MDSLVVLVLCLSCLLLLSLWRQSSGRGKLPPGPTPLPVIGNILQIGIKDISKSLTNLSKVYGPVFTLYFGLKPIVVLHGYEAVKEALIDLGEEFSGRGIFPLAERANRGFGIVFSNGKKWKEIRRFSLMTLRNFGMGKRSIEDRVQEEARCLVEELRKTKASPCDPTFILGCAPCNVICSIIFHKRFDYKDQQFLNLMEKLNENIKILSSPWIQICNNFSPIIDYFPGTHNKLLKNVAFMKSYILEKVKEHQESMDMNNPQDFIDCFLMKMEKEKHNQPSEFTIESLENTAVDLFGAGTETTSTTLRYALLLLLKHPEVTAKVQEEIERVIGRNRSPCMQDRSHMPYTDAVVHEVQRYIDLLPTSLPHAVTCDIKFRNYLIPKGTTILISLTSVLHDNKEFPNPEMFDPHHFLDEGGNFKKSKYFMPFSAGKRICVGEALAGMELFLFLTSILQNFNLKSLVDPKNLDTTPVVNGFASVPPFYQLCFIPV
T3 sequence (P08684 whole entry): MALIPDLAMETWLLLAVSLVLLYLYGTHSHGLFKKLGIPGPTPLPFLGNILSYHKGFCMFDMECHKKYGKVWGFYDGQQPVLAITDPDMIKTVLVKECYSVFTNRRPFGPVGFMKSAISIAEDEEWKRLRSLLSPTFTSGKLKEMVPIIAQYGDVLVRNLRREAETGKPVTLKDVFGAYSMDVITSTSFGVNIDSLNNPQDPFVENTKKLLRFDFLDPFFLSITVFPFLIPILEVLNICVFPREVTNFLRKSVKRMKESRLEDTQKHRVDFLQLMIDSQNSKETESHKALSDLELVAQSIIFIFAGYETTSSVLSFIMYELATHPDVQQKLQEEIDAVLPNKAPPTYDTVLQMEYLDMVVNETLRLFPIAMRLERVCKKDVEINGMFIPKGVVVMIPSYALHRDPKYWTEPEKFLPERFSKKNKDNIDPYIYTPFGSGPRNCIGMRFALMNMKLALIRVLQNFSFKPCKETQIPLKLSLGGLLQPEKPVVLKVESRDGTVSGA

| SMILES | inhibition at 5 min, 10 µM [1] | IC50 [2] | inhibition at 5 min, 10 µM [3] |
| --- | --- | --- | --- |
| [2H]c1ccc2c(N3C[C@H](CN4CCN(c5nc(C)cc(N6C[C@H](OC)[C@@H](N)C6)n5)CC4)O[C@H](C)C3)ccc(C#N)c2n1 [Example 134, 5-[(2S,6R)-2-[[4-[4-[(3S,4S)-3-amino-4-methoxy-pyrrolidin-1-yl]-6-methyl-pyrimidin-2-yl]piperazin-1-yl]methyl]-6-methyl-morpholin-4-yl]-2-deuterio-quinoline-8-carbonitrile] | 44.5% | 25 nM | 47.5% |
| [2H]c1ccc2c(N3C[C@H](CN4CCN(c5ccc(N6C[C@@H](N)[C@H](OC)C6)nc5)CC4)O[C@H](C)C3)ccc(C#N)c2n1 [Example 143, 5-[(2S,6R)-2-[[4-[6-[(3R,4R)-3-amino-4-methoxy-pyrrolidin-1-yl]-3-pyridyl]piperazin-1-yl]methyl]-6-methyl-morpholin-4-yl]-2-deuterio-quinoline-8-carbonitrile] | -9.5% | 21 nM | 18% |
| [2H]c1ccc2c(N3C[C@H](CN4CCN(c5ccc(N6CC7(CNCCO7)C6)nc5)CC4)O[C@H](C)C3)ccc(C#N)c2n1 [Example 152, 2-deuterio-5-[(2R,6S)-2-methyl-6-[[4-[6-(5-oxa-2,8-diazaspiro[3.5]nonan-2-yl)-3-pyridyl]piperazin-1-yl]methyl]morpholin-4-yl]quinoline-8-carbonitrile] | -1% | 15 nM | 35% |
| [2H]c1ccc2c(N3C[C@H](CN4CCN(c5ccc(N[C@H]6CNC[C@H]6F)nc5)CC4)O[C@H](C)C3)ccc(C#N)c2n1 [Example 162, 2-deuterio-5-[(2S,6R)-2-[[4-[6-[[(3S,4R)-4-fluoropyrrolidin-3-yl]amino]-3-pyridyl]piperazin-1-yl]methyl]-6-methyl-morpholin-4-yl]quinoline-8-carbonitrile] | -2.5% | 11 nM | 42.5% |
| C[C@@H]1CN(c2ccc(C#N)n3nccc23)C[C@H](CN2CC(c3ccc(N4CC(C)(N)C4)cc3)C2)O1 [Example 163, 4-[(2S,6R)-2-[[3-[4-(3-amino-3-methyl-azetidin-1-yl)phenyl]azetidin-1-yl]methyl]-6-methyl-morpholin-4-yl]pyrazolo[1,5-a]pyridine-7-carbonitrile] | -4.5% | 22 nM | 0.5% |

Now from value to compound:

| inhibition at 5 min, 10 µM [1] | IC50 [2] | inhibition at 5 min, 10 µM [3] | SMILES |
| --- | --- | --- | --- |
| 2.5% | 32 nM | 10.5% | C[C@@H]1CN(c2ccc(C#N)n3ncc(F)c23)C[C@H](CN2CCN(c3ccc(N4CC(C)(N)C4)nc3)CC2)O1 [Example 154, 4-[(2S,6R)-2-[[4-[6-(3-amino-3-methyl-azetidin-1-yl)-3-pyridyl]piperazin-1-yl]methyl]-6-methyl-morpholin-4-yl]-3-fluoro-pyrazolo[1,5-a]pyridine-7-carbonitrile] |
| -5.5% | 3 nM | -0.5% | C[C@@H]1CN(c2ccc(C#N)n3ncc(F)c23)C[C@H](CN2CC(c3ccc(N4CC(C)(N)C4)nc3)C2)O1 [Example 158, 4-[(2S,6R)-2-[[3-[6-(3-amino-3-methyl-azetidin-1-yl)-3-pyridyl]azetidin-1-yl]methyl]-6-methyl-morpholin-4-yl]-3-fluoro-pyrazolo[1,5-a]pyridine-7-carbonitrile] |
| -1.5% | 11 nM | 4.5% | C[C@@H]1CN(c2ccc(C#N)n3ncc(F)c23)C[C@H](CN2CC(c3ccc(N4CC(C)(N)C4)cc3)C2)O1 [Example 160, 4-[(2S,6R)-2-[[3-[4-(3-amino-3-methyl-azetidin-1-yl)phenyl]azetidin-1-yl]methyl]-6-methyl-morpholin-4-yl]-3-fluoro-pyrazolo[1,5-a]pyridine-7-carbonitrile] |
| -1% | 10 nM | 30.5% | CO[C@@H]1CN(c2ccc(C3CN(C[C@H]4CN(c5ccc(C#N)n6ncc(F)c56)C[C@@H](C)O4)C3)cn2)C[C@H]1N [Example 164, 4-[(2S,6R)-2-[[3-[6-[(3R,4R)-3-amino-4-methoxy-pyrrolidin-1-yl]-3-pyridyl]azetidin-1-yl]methyl]-6-methyl-morpholin-4-yl]-3-fluoro-pyrazolo[1,5-a]pyridine-7-carbonitrile] |
| -8.5% | 7 nM | 9% | C[C@@H]1CN(c2ccc(C#N)n3ncc(F)c23)C[C@H](CN2CC(c3ccc(N4C[C@@H]5C[C@H]4CN5)nc3)C2)O1 [Example 165, 4-[(2S,6R)-2-[[3-[6-[(1S,4S)-2,5-diazabicyclo[2.2.1]heptan-2-yl]-3-pyridyl]azetidin-1-yl]methyl]-6-methyl-morpholin-4-yl]-3-fluoro-pyrazolo[1,5-a]pyridine-7-carbonitrile] |
| -3.5% | 21 nM | 35.5% | CO[C@@H]1CN(c2ccc(N3CCN(C[C@H]4CN(c5ccc(C#N)n6ncc(F)c56)C[C@@H](C)O4)CC3)cn2)C[C@H]1N [Example 166, 4-[(2S,6R)-2-[[4-[6-[(3R,4R)-3-amino-4-methoxy-pyrrolidin-1-yl]-3-pyridyl]piperazin-1-yl]methyl]-6-methyl-morpholin-4-yl]-3-fluoro-pyrazolo[1,5-a]pyridine-7-carbonitrile] |
